Experiments:
[1] = tested on: primary tumors and lung metastases; experiment: IHC staining of tumor samples from treatment groups (Ki67, Casp3, CD31, α-SMA); type: in vivo, NSG female mice; details: for tumor cell proliferation (Ki67 staining): primary tumor and lung metastatic nodules
Description: FIGS. 17F-17I are graphs quantifying positives cells per field where primary tumors were collected from indicated treatment groups from FIG. 17D and then subjected to IHC staining with indicated antibodies, including % Ki67^+ (17F), % Casp3^+ (17G), % CD31^+ (17H), and % α-SMA^+ (17I).
TIC staining was performed as previously described (Wan et al., 2014). Briefly, Paraffin-embedded primary tumor or lung samples were sliced into 4 μm thickness. The slides were baked overnight at 60° C. Next, the tissue slides were washed with PBS after deparaffinization and hydration and then boiled in citrate buffer at 100° C. for 40 min. After treated with 3% H2O2 for 30 min to block endogenous peroxidase, slides were incubated at 4° C. overnight with Ki67 (Leica Biosystem, Ki67-MM1-L-CE-S), cleaved caspase-3 (Cell signaling, 9661S), p-EGFR (Cell signaling, 3777), p-FAK (Cell signaling, 8556), CD31 (Cell signaling, 77699), -SMA (Sigma, A5228), or Tinagl1 (Sigma, HPA048695) antibodies. Following washes with PBS, slides were then incubated with HRP-conjugated goat anti-rabbit or mouse secondary antibody (Genetech) for 30 min at room temperature. Sections were stained by DAB and then counterstained with Gill hematoxylin according to manufacturer's instructions.

LM2 cells = experiment: LM2 orthotopic tumors, single or combined agent treatment; type: in vivo, NSG female mice; details: for spontaneous lung metastasis: LM2 tumors, ex vivo BLI at endpoint
Description: FIG. 17A is an image of WB analyses where NSG female mice were injected with 10^4 LM2 cells by MFP injection, and intravenously treated with the indicated reagents twice per week when tumors reached to 2 mm in dimeter, then after 5 weeks of the treatments, the primary tumors of each group were collected and activation of EGFR and FAK in primary tumor of each group were tested by WB.
FIG. 17B is a graph illustrating tumor volumes of each treatment group from FIG. 17A.
FIG. 17C is a graph, quantifying ex vivo BLI results where lungs in mice from FIG. 17A were collected and spontaneous metastasis was examined at the endpoint.
Two molecular targeting reagents, ATN-161 (ATN) and Erlotinib (Erlo) were employed. ATN is an integrin α5β1 antagonist that inhibits the integrin signaling pathway and slows tumor progression. Erlotinib is a well-established small molecular inhibitor of EGFR and is clinically approved for cancer treatment. Mice orthotopically implanted with LM2 cells were split into 6 groups after the tumors reached 2 mm in diameter and subjected to various single or combined agent treatments twice per week [(1) PBS; (2) ATN 30 μg/mouse; (3) Erlo 100 mg/kg; (4) r-Tinagl1 30 μg/mouse; (5) ATN and Erlo; and (6) ATN, Erlo, and r-Tinagl1]. Referring to FIG. 17A, the inhibition of integrin/FAK and EGFR upon each treatment was validated by western blotting and TIC staining.
(§1) For xenograft studies, 8-weeks immunocompromised NOD Scid Gamma (NSG) or immunocompetent FVB females were used. Cells were suspended in 10 μl of PBS for mammary gland injection (MFP), or were suspended in 100 μl of PBS for intravenous injection. For human patient-derived xenograft (PDX, HCL001, kindly provided by Dr. Alana Welm) study, we followed the standard protocol for PDX transplantation, maintenance and digestion of the tumors (DeRose et al., 2011). 2×10^4 cells were suspended in 10 μl of PBS and subjected to MFP injection. For recombinant Tinagl1 (r-Tinagl1), ATN-161, Erlotinib treatments, the mice were injected with 30 μg/mouse, 30 μg/mouse, and 100 mg/kg respectively twice per week via tail-vein. Primary tumors were quantified once per week via caliper measurement. All cell lines used for lung metastasis experiments were stably labeled with a firefly luciferase expressing vector and were monitored by weekly bioluminescent imaging (BLI). At protocol-defined endpoints, lungs were dissected and fixed in bouin's solution and the metastatic lesions were counted.

SUM159-M1a = SUM159-M1a orthotopic tumors, single or combined agent treatment; type: in vivo, NSG female mice; details: SUM159-M1a model
Description: FIG. 17D is an image of WB analyses where NSG female mice were injected with 10^4 M1a cells by MFP injection, and treated with the indicated reagents twice per week when tumors reached to 2 mm in diameter, then after 5 weeks of the treatments, the primary tumors of each group were collected and activation of EGFR and FAK in primary tumor of each group was tested by WB.
FIG. 17E is a graph illustrating tumor volumes of each treatment group from FIG. 17D.
as §1, with “For recombinant Tinagl1 (r-Tinagl1), ATN-161, Erlotinib treatments, the mice were injected with 30 μg/mouse, 30 μg/mouse, and 100 mg/kg respectively twice per week via tail-vein.” left out

[2] = target: T1, mutant integrin β1 subunit (β1-M) with deletion of aa 130-240 (human, UniProt P05556 21-798); experiment: IP and WB from HEK293T cells overexpressing β1-M and Tinagl1-HA
T1 construct: Overexpressed in HEK293T cells, assayed in lysate; said to be still localized to the cell surface; also called β1-mutant; integrin subunit β1-Δ130-240aa
T1 sequence (P05556 other isoform, or with tags, fused parts or gaps mutant): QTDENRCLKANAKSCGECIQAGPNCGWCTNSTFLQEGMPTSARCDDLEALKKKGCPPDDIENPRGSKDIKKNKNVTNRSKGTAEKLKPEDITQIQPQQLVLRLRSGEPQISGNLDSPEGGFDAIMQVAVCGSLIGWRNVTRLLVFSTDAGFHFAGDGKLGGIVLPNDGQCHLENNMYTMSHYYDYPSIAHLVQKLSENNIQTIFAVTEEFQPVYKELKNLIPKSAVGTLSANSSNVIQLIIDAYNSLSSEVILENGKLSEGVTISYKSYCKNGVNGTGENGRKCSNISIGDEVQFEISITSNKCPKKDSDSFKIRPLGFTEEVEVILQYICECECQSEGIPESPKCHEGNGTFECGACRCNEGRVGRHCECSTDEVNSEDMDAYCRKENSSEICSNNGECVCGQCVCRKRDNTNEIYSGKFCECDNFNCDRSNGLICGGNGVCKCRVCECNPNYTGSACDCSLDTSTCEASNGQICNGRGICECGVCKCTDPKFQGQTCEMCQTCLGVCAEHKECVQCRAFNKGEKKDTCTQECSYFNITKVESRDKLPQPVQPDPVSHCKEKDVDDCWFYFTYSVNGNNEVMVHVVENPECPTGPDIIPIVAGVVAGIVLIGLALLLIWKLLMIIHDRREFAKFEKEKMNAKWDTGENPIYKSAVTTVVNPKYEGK
Description: Immunoprecipitation (IP) and western blotting (WB) analysis. For an IP experiment, cells were collected in 1.5 ml EP tube when they reached to 100% confluency in 10 or 15 cm dish as indicated. […] Meanwhile, culture media was 100× concentrated and mixed with the cell lysates. The samples were centrifuged, 100 μl of the supernatant was transferred to a new tube as input, and the rest was incubated with 2 μg of IgG, anti-HA, anti-Myc, anti-Integrin subunit β1, anti-Integrin subunit α5 or anti-EGFR (as indicated in each experiment) overnight at 4° C. (recombinant proteins may be added at this step as indicated in each experiment). […] The beads were then washed for 5 times with IP lysis buffer. After final spin, the beads were boiled with 50 μl of 1×SDS Laemmli buffer for 5 min, and the samples were subjected to western blotting (WB). […] 100 μl of combined solution was transferred to a new tube and served as input. The rest was split into two tubes and IP with 2 μg of IgG or His antibody respectively. The IP samples were washed with PBS and analyzed with WB.

human EGFR-GFP = target: T2, human EGFR-GFP (human, UniProt P00533 25-1210); experiment: competition co-IP in lysate of HEK293T cells co-expressing Tinagl1-HA and GFP-EGFR; competitor of Tinagl1-HA
T2 construct: Printed both as GFP-EGFR and EGFR-GFP; the order of the two pieces is not certain; Expressed in HEK293T or LM2 cells, assayed in lysate; also called GFP-EGFR; not shown: GFP

For ATN-161, the “tumor cell proliferation (Ki67 staining)” value [1] was “suppressed proliferation in primary tumor but not lung metastatic nodules” and the spontaneous lung metastasis (LM2 cells) was “no reduction was observed”.

With `C#Cc1cccc(Nc2ncnc3cc(OCCOC)c(OCCOC)cc23)c1` [Erlotinib] the lung metastasis (SUM159-M1a) was “reduced lung metastasis”, the “CD31+ endothelium” value ([1]; primary and lung metastasis) was “significantly reduced” and the “tumor cell proliferation (Ki67 staining)” value [1] was “inhibited tumor cell proliferation in lung metastatic nodules but not primary sites”. The primary tumor growth (LM2 cells; LM2, twice per week, ATN 30 μg/mouse, Erlo 100 mg/kg, r-Tinagl1 30 μg/mouse) was “trended toward reducing primary tumor growth but did not reach statistical significance” and the spontaneous lung metastasis (LM2 cells) was “reduced spontaneous lung metastasis”.

B1: C-terminal HA tagged Tinagl1 (Tinagl1-HA) (other)
chain: AQQGRGRRELAPGLHLRGIRDAGGRYCQEQDLCCRGRADDCALPYLGAICYCDLFCNRTVSDCCPDFWDFCLGVPPPFPPIQGCMHGGRIYPVLGTYWDNCNRCTCQENRQWQCDQEPCLVDPDMIKAINQGNYGWQAGNHSAFWGMTLDEGIRYRLGTIRPSSSVMNMHEIYTVLNPGEVLPTAFEASEKWPNLIHEPLDQGNCAGSWAFSTAAVASDRVSIHSLGHMTPVLSPQNLLSCDTHQQQGCRGGRLDGAWWFLRRRGVVSDHCYPFSGRERDEAGPAPPCMMHSRAMGRGKRQATAHCPNSYVNNNDIYQVTPVYRLGSNDKEIMKELMENGPVQALMEVHEDFFLYKGGIYSHTPVSLGRPERYRRHGTHSVKITGWGEETLPDGRTLKYWTAANSWGPAWGERGHFRIVRGVNECDIESFVLGVWGRVGMEDMGHH
notes: Expressed in LM2 or HEK293T cells; assayed in cell lysate mixed with concentrated culture media; also called Tiangl1-HA; not shown: human influenza hemagglutinin (HA) tag fused to the C-terminal
B1: no binding [2].

B2: full length recombinant human Tinagl1 with 6xHis tag at the C-terminus (r-Tinagl1) (other)
chain: AQQGRGRRELAPGLHLRGIRDAGGRYCQEQDLCCRGRADDCALPYLGAICYCDLFCNRTVSDCCPDFWDFCLGVPPPFPPIQGCMHGGRIYPVLGTYWDNCNRCTCQENRQWQCDQEPCLVDPDMIKAINQGNYGWQAGNHSAFWGMTLDEGIRYRLGTIRPSSSVMNMHEIYTVLNPGEVLPTAFEASEKWPNLIHEPLDQGNCAGSWAFSTAAVASDRVSIHSLGHMTPVLSPQNLLSCDTHQQQGCRGGRLDGAWWFLRRRGVVSDHCYPFSGRERDEAGPAPPCMMHSRAMGRGKRQATAHCPNSYVNNNDIYQVTPVYRLGSNDKEIMKELMENGPVQALMEVHEDFFLYKGGIYSHTPVSLGRPERYRRHGTHSVKITGWGEETLPDGRTLKYWTAANSWGPAWGERGHFRIVRGVNECDIESFVLGVWGRVGMEDMGHHVDHHHHHH
notes: also called r-Tiangl1; recombinant Tinagl1 protein
B2: binds (human EGFR-GFP).
